In paper PMC7887068 (Peptides, 2021):
Like-named read-outs stand apart in the source and are kept apart here.

Key:
[1] = biological target: T1, recombinant human ACE2 (rhACE2) (Homo sapiens, UniProt Q9BYF1); assay: MLN-4760 inhibition of rhACE2 metabolism of angiotensin peptides; type: biochemical
ACE2 = settings: read-out: half maximum inhibitory concentration (IC50); cited from earlier work
[2] = biological target: T1, recombinant human ACE2 (rhACE2); assay: Zinc inhibition of rhACE2 metabolism of Ang II to Ang 1–7; type: biochemical
[3] = system: Human neutrophil collagenase (matrix metalloproteinase 8, MMP8); settings: 10 mM zinc; activity increases up to 100 μM zinc; cited from earlier work
[4] = biological target: T1, recombinant human ACE2 (rhACE2); settings: pH 7.0
[5] = system: CC[C@H](C)[C@H](NC(=O)[C@H](Cc1ccc(O)cc1)NC(=O)[C@@H](NC(=O)[C@H](CCCNC(=N)N)NC(=O)[C@@H](N)CC(=O)O)C(C)C)C(=O)N[C@@H](Cc1cnc[nH]1)C(=O)N1CCC[C@H]1C(=O)N[C@@H](Cc1ccccc1)C(=O)O; type: biochemical, human; settings: other: average of the two series (Tables 2 and 3), Ang II to Ang 1–7

T1 sequence (Q9BYF1 18-740 limits assumed): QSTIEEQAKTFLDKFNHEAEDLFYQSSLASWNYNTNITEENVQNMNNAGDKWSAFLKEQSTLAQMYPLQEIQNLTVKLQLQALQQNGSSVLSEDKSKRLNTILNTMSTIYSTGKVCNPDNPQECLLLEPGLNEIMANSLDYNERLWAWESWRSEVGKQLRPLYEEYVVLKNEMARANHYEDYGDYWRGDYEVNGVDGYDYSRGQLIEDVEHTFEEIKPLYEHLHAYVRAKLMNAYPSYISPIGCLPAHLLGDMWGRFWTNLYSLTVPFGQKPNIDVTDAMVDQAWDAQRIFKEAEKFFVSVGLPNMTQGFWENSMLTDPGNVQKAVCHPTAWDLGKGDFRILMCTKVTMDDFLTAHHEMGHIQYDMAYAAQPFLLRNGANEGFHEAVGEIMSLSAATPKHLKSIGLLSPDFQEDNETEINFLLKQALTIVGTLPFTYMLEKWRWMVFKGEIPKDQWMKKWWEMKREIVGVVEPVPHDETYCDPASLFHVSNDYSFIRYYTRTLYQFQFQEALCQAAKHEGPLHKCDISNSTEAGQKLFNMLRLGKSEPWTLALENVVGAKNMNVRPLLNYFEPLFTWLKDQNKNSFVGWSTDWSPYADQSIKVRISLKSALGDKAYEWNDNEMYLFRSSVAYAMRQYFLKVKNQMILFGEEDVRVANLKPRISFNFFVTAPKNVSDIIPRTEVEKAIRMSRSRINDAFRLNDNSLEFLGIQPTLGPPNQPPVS

CC(C)C[C@H](N[C@@H](Cc1cncn1Cc1cc(Cl)cc(Cl)c1)C(=O)O)C(=O)O [MLN-4760]
inhibition of metabolism of Ang II to Ang 1–7 ([1]; 1 μM MLN-4760): nearly all | inhibition at 1 µM ([1]; read-out: inhibition of rhACE2 activity): ~90% | IC50 (ACE2): 0.0004 µM

CC(=O)[O-].CC(=O)[O-].[Zn+2] [zinc, zinc acetate]
inhibition of ACE2 activity ([2]; 1 mM zinc): completely | IC50 ([2]; read-out: IC50 for inhibition of rhACE2 metabolism of Ang II to Ang 1–7, zinc 1 to 1000 μM, 100 μM Ang II, rhACE2 48.4 ng/ml (569 pM), 50 mM Hepes, 100 mM NaCl, pH 7.0, 30 min, 37°C, mean ± SEM, n=2): 69.1 ± 1.1 µM | collagenase activity remaining [3]: ~ 20% | Log IC50 for inhibition of rhACE2 metabolism of Mca-APK(dnp) ([4]; HEPES buffer): −3.77 | Log IC50 for inhibition of rhACE2 metabolism of Mca-APK(dnp) ([4]; MES buffer): −3.85 | Log IC50 for inhibition of rhACE2 metabolism of Mca-APK(dnp) ([4]; Tris buffer): −3.82

recombinant human ACE2 (rhACE2) (Homo sapiens)
Km [5]: 8.47 µM | kcat/Km [5]: 1.02 μM^−1,sec^−1
